This assay concerns the target T1, human GPR84 receptor (Homo sapiens, UniProt Q9NQS5).
T1 construct: host or cells: HEK293, transiently transfected
Nature of the assay: Gαi biosensor BRET assay (GPR84 antagonism vs agonist ZQ-16). Format: cell-based. To be noted: HEK293 cells, 200 nmol/L agonist ZQ-16; for inhibition at 10 µM: tested at 10 μM (concentration code D); for IC50: Gαi biosensor BRET assay; for inhibition at 2 µM: tested at 2 μM (concentration code A). The source says:
Background—The following assays can be used for determination of GPR84 activation in living HEK293 cells. The Gai BRET biosensor (Gagnon et al., 2018; Gales et al., 2006. Nat Struct Mol Biol. 13, 778-86; Saulieres et al., 2012. Nat Chem Biol. 8, 622-30) allows to directly monitor GPR84-mediated activation of Gai. The Gai biosensor consists of a Rluc8-tagged Gai2 subunit, a GFP10-tagged Gy2 subunit, and an untagged GB1. Agonist stimulation and GPR84 activation triggers a physical separation between the RLuc8-Gai donor and the GFP10-Gy2 acceptor, resulting in a decrease in BRET signal whose amplitude is correlated to ligand efficacy (Gales et al., 2006). Moreover, signaling functions of GPCRs are tightly regulated by endocytosis, the targeting of receptors to endosomes and their sorting to lysosomes or recycling to the plasma membrane. The early endosomes (EEs) trafficking assay (Namkung et al., 2016. Nat Commun. 7, 12178) uses Rluc8-tagged GPR84 and Renilla GFP (rGFP) attached to the FYVE domain from human endofin/zinc finger FYVE domain-containing protein 16, which binds phosphatidylinositol 3-phosphate in EEs. Agonist stimulation of GPR84-Rluc8 leads to trafficking of the receptor to EEs, and ensuing increase of the donor concentration relative to the rGFP-FYVE acceptor anchored in the same cellular compartment, and thus results in an increase in BRET signal.
Plasmids—The cDNA clones for human GPR84 receptor, human Gai2, GB1, and Gy2 were obtained from the cDNA Resource Center (www.cdna.org). GFP10 (F64L, S147P, S202F and H231L variant of Aequorea victoria Green Fluorescent Protein) gBlocks gene fragments (Integrated DNA Technologies, IA) and linker were inserted in frame at the N-terminus of human Gy2. Rluc8 (A55T, C124A, S130A, K136R, A143M, M185V, M253L, and S287L variant of the Renilla reniformis luciferase) gBlocks gene fragment was inserted with linkers in frame in between residues 91 and 92 of Gai2 or at the C-terminus of GPR84. The FYVE domain from human endofin (residues Q739 to K806) attached in frame at the C terminus of a humanized Renilla GFP (rGFP), were synthesized as gBlocks gene fragments.
Bioluminescence Resonance Energy Transfer (BRET) Measurement-HEK293 cells were transfected with GPR84-Rluc8 and rGFP-FYVE for the EEs trafficking biosensor or with GPR84, Gai2-Rluc8, GFP10-Gy2, and GB1 for the Ga; biosensor. The following day, transiently transfected cells were seeded in 96-well white clear bottom microplates coated with poly-D-lysine and left in culture for 24 hours. Cells were washed once with Tyrode's buffer (140 mmol/L NaCl, 1 mmol/L CaCl2), 2.7 mmol/L KCl, 0.49 mmol/L MgCl2, 0.37 mmol/L NaH2PO4, 5.6 mmol/L glucose, 12 mmol/L NaHCO3, and 25 mmol/L HEPES, pH 7.5) before performing assays in Tyrode's buffer. Test compounds were incubated with cells for 5 (Gai) or 15 (EEs) minutes at 37° C. before addition of 200 nmol/L of the GPR84 agonist ZQ-16 (2-(Hexylthio)-6-hydroxy-4 (3H)-pyrimidinone) for 5 minutes at room temperature (Gai) or 30 minutes at 37° C. (EEs). The Rluc8 substrate coelenterazine 400A (Prolume, Lakeside, A Z) was added at a final concentration of 5 μmol/L and BRET readings were collected using an Infinite M1000 microplate reader (Tecan, Morrisville, N C). BRET2 readings between Rluc8 and GFP10 or rGFP were collected by sequential integration of the signals detected in the 370 to 450 nm (Rluc8) and 510 to 540 nm (GFP10, rGFP) windows. The BRET signal was calculated as the ratio of light emitted by acceptor (GFP10, rGFP) over the light emitted by donor (Rluc8). The values were corrected to net BRET by subtracting the background BRET signal obtained in cells transfected with Rluc8 constructs alone. Ligand-promoted net BRET values were calculated by subtracting vehicle-induced net BRET from ligand-induced net BRET.

One may read the inhibition as the percentage by which the read-out fell short of the control. High values mean strong suppression, low ones little suppression. Broadly, the IC50 is the concentration that gives 50% inhibition. A low value points to higher potency.

T1 sequence (Q9NQS5 whole entry): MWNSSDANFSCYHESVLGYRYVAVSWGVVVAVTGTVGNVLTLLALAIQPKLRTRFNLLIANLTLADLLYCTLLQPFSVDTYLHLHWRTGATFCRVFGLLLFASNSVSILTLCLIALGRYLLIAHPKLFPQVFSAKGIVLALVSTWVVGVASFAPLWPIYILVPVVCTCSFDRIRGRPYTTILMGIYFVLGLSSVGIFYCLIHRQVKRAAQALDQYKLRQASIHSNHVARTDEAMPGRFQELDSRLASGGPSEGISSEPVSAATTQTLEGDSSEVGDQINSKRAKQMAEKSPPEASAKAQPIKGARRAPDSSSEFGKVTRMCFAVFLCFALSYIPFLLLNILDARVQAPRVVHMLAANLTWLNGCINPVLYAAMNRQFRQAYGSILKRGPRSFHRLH

In turn, `Cc1cc(C#CC2CC2)cc(=O)n1[C@H](C)c1ccc(Br)cc1` [Compound I-240] returned an inhibition at 10 µM of less than 25%.

Regarding `Cc1cc(OCC(=O)N2CC(O)C2)cc(=O)n1[C@H](C)c1ccc(C#CC2CC2)cc1` [Compound I-293], the IC50 was not above 300 nM and the inhibition at 2 µM is more than 75%.

Regarding `Cc1cc(OCC(=O)NC(C)C)cc(=O)n1[C@H](C)c1ccc(C#CC2CC2)cc1` [Compound I-54], the inhibition at 10 µM was more than 75%.

`Cc1cc(OCC(=O)N2CC(CO)C2)cc(=O)n1[C@H](C)c1ccc(C#CC2CC2)cc1` [Compound I-291]: the IC50 is not above 300 nM and the inhibition at 2 µM was more than 75%.

In the case of `Cc1cc(OCC(=O)N2CC3(COC3)C2)cc(=O)n1[C@H](C)c1ccc(C#CC2CC2)cc1` [Compound I-283], the IC50 is not above 300 nM and the inhibition at 10 µM is more than 75%.

`Cc1cc(OCC(=O)N2CC[C@H](F)C2)cc(=O)n1[C@H](C)c1ccc(C#CC2CC2)cc1` [Compound I-244]: the IC50 was not above 300 nM and the inhibition at 2 µM is more than 75%.

Take `Cc1cc(OCC(=O)N2CC(C)(C#N)C2)cc(=O)n1[C@H](C)c1ccc(C#CC2CC2)cc1` [Compound I-343]: the IC50 is 1000 to 3000 nM and the inhibition at 2 µM was more than 75%.

The compound `CNS(=O)(=O)COc1cc(C)n([C@H](C)c2ccc(C#CC3CC3)c(F)c2)c(=O)c1` [Compound I-45] gave an IC50 of 300 to 1000 nM and an inhibition at 10 µM of 50 to 75%.

Regarding `Cc1cc(OCC(=O)N(C2CC2)C2CC2)cc(=O)n1[C@H](C)c1ccc(C#CC2CC2)cc1` [Compound I-278], the half-maximal inhibitory concentration (IC50) is not above 300 nM and the inhibition at 2 µM was more than 75%.

On to `Cc1cc(OCC(=O)N(C)C)cc(=O)n1[C@H](C)c1ccc(C#CC2(O)CC2)cc1` [Compound I-210], for which the inhibition at 10 µM is more than 75%.

Compound `Cc1cc(OCC(=O)N2CC[C@H]2C(=O)O)cc(=O)n1[C@H](C)c1ccc(C#CC2CC2)cc1` [Compound I-301] returned an IC50 of 1000 to 3000 nM and an inhibition at 10 µM of more than 75%.

Regarding `Cc1cc(OCC(=O)N(C)C)cc(=O)n1[C@H](C)c1ccc(C#CC2CC2)c(Br)c1` [Compound I-35], the IC50 is not above 300 nM and the inhibition at 2 µM is more than 75%.

On to `Cc1cc(OCC(N(C)C)C(F)(F)F)cc(=O)n1[C@H](C)c1ccc(C#CC2CC2)cc1` (stereo partly drawn) [Compound I-86], for which the inhibition at 10 µM was 50 to 75%.

Compound `Cc1cc(OCC(=O)N(C)C2CCN(C)CC2)cc(=O)n1[C@H](C)c1ccc(C#CC2CC2)cc1` [Compound I-44] returned an inhibition at 2 µM of more than 75%.

On to `CCN(CC)C(=O)COc1cc(C)n([C@H](C)c2ccc(C#CC3CC3)cc2)c(=O)c1` [Compound I-268], for which the IC50 was not above 300 nM and the inhibition at 2 µM is more than 75%.

In turn, `Cc1cc(OCC(=O)N2CCC[C@@H]2C(=O)O)cc(=O)n1[C@H](C)c1ccc(C#CC2CC2)cc1` [Compound I-246] registered a half-maximal inhibitory concentration (IC50) of 300 to 1000 nM and an inhibition at 10 µM of more than 75%.

`COC(=O)COc1cc(C)n([C@H](C)c2ccc(C#CC3CC3)cc2)c(=O)c1` [Compound I-22] had an inhibition at 10 µM of more than 75%.

Compound `Cc1cc(OCc2ncncc2Cl)cc(=O)n1[C@H](C)c1ccc(C#CC2CC2)cc1` [Compound I-15] registered an IC50 not above 300 nM and an inhibition at 10 µM of more than 75%.

In turn, `Cc1cc(OCC(=O)N2CCC(F)(F)C2)cc(=O)n1[C@H](C)c1ccc(C#CC2CC2)cc1` [Compound I-257] showed an IC50 not above 300 nM and an inhibition at 2 µM of more than 75%.

As to `Cc1cc(OCC(=O)N2CC(C)(C)C2)cc(=O)n1[C@H](C)c1ccc(C#CC2CC2)cc1` [Compound I-342], the IC50 lay within 300 to 1000 nM and the inhibition at 10 µM was more than 75%.

In turn, `Cc1cc(OCC(=O)N2CCC[C@@H]2C(N)=O)cc(=O)n1[C@H](C)c1ccc(C#CC2CC2)cc1` [Compound I-318] had a concentration for half-maximal inhibition (IC50) of 300 to 1000 nM and an inhibition at 10 µM of more than 75%.

With `Cc1cc(OCC(=O)N(C)CC(F)(F)F)cc(=O)n1[C@@H](C)c1ccc(C#CC2CC2)cc1` [Compound I-237], the inhibition at 10 µM was less than 25%.

As for `COc1cc(C(C)n2c(C)cc(OCC(=O)N(C)C)cc2=O)ccn1` (stereo not drawn) [Compound I-230], the inhibition at 10 µM was less than 25%.

In turn, `Cc1cc(OCC(=O)NC2CCOCC2)cc(=O)n1[C@H](C)c1ccc(C#CC2CC2)cc1` [Compound I-66] gave a 50% inhibitory concentration (IC50) of 300 to 1000 nM and an inhibition at 10 µM of 50 to 75%.

`Cc1cc(OCC(=O)N2CC3CC3C2)cc(=O)n1[C@H](C)c1ccc(C#CC2CC2)cc1` (stereo partly drawn) [Compound I-284] had an IC50 not above 300 nM and an inhibition at 2 µM of more than 75%.

With `Cc1cc(OCC(=O)NCC(C)C)cc(=O)n1[C@H](C)c1ccc(C#CC2CC2)cc1` [Compound I-49], the inhibition at 10 µM is more than 75%.

Take `Cc1nc(OCC(=O)N(C)C)cc(=O)n1[C@@H](C)c1ccc(C#CC2CC2)cc1` [Compound I-218]: the inhibition at 10 µM was less than 25%.

`Cc1noc(COc2cc(C)n([C@H](C)c3ccc(C#CC4CC4)c(F)c3)c(=O)c2)n1` [Compound I-18] showed an inhibition at 10 µM of more than 75%.

`Cc1cc(OCC(=O)C(C)C)cc(=O)n1[C@H](C)c1ccc(C#CC2CC2)cc1` [Compound I-270]: the half-inhibitory concentration (IC50) was not above 300 nM and the inhibition at 2 µM is more than 75%.

In the case of `Cc1cc(OCc2ncc(NS(C)(=O)=O)cn2)cc(=O)n1[C@H](C)c1ccc(C#CC2CC2)cc1` [Compound I-11], the concentration for half-maximal inhibition (IC50) is not above 300 nM and the inhibition at 2 µM is more than 75%.

As for `Cc1cc(OCc2ncccn2)cc(=O)n1[C@H](C)c1ccc(/C=C/C2CC2)cc1` [Compound I-149], the inhibition at 10 µM was less than 25%.

In turn, `Cc1cc(OCC(=O)N2CC[C@H](C#N)C2)cc(=O)n1[C@H](C)c1ccc(C#CC2CC2)cc1` [Compound I-310] showed an IC50 not above 300 nM and an inhibition at 2 µM of more than 75%.

Compound `CCCCc1ccc(C(C)n2c(C)cc(OCc3ncccn3)cc2=O)cc1` (stereo not drawn) [Compound I-5, 1-(1-(4-butylphenyl)ethyl)-6-methyl-4-(pyrimidin-2-ylmethoxy)pyridin-2 (1H)-one] yielded an inhibition at 10 µM of less than 25%.

The compound `Cc1cc(OCC(=O)N2CCC[C@@H]2C#N)cc(=O)n1[C@H](C)c1ccc(C#CC2CC2)cc1` [Compound I-306] displayed an IC50 of 300 to 1000 nM and an inhibition at 2 µM of more than 75%.

`Cc1cc(OCC(=O)N2CC[C@@H](N(C)S(C)(=O)=O)C2)cc(=O)n1[C@H](C)c1ccc(C#CC2CC2)cc1` [Compound I-338]: the inhibition at 10 µM is more than 75%.

`CCCC#Cc1ccc([C@@H](C)n2c(C)cc(OCC(=O)N(C)C)cc2=O)cc1` [Compound I-20] gave a half-maximal inhibitory concentration (IC50) not above 300 nM and an inhibition at 10 µM of more than 75%.

Turning to `Cc1cc(OCC(O)C(C)C)cc(=O)n1[C@H](C)c1ccc(C#CC2CC2)cc1` (stereo partly drawn) [Compound I-274], the inhibition at 10 µM was more than 75%.

The compound `Cc1cc(OCC(=O)N2CC(C)(CO)C2)cc(=O)n1[C@H](C)c1ccc(C#CC2CC2)cc1` [Compound I-313] came in with an IC50 not above 300 nM and an inhibition at 2 µM of more than 75%.

`Cc1cc(OCC(=O)N(C)C2CC2)cc(=O)n1[C@H](C)c1ccc(C#CC2CC2)cc1` [Compound I-42] returned an IC50 not above 300 nM and an inhibition at 10 µM of more than 75%.
